Measurements from patent publication US20160015771A1, “METHOD OF TREATING OPTIC NERVE DAMAGE, OPHTHALMIC ISCHEMIA OR OPHTHALMIC REPERFUSION INJURY” (Curonz Holdings Company Limited, priority 2012, published 2016).

Legend:
[1] = system: Retinal Ganglion Cells (RGC); assay: Retinal ganglion cell (RGC) survival by BRN3A staining of flat-mounted retinae after optic nerve ligation/reperfusion; assay type: in vivo, Male Long-Evans rats; details: 8 days after injury
Description: Ischemia was maintained for 45 minutes.
At the end of the study, the animals were euthanized by intraperitoneal injection of overdosed pentobarbital. After euthanasia at day 8 after optic nerve ligation injury, the retinae of both eyes of N=6 animals per cohort were fixed in formalin 4% (1 h at room temperature), dissected and flat-mounted. The flat-mounted preparation was incubated with an Alexa 594 conjugated anti-BRN3A (Brain-specific homeobox/POU domain protein 3A, Chemicon, cat #mAb1585) to visualize the Retinal Ganglion Cells (RGC). Fluorescence was assessed by an Apotome microscope at magnification×20 (Zeiss) within twelve randomly selected respective microscopic fields per subject. The number of surviving RGC was determined with Axio Vision 4.2 software in the respective retinae areas.
Animals were sacrificed at day 8 and retinae were analysed for BrN3A (Brain-specific homeobox/POU domain protein 3A) protein expression patterns that are specific for retinal ganglion cells (RGCs). 12 fields per retina were evaluated.

[2] = system: ischemia-related optic nerve injury; details: topically or intraperitoneal (IP) applied formulations; cited from earlier work

For `Brc1c(NC2=NCCN2)ccc2nccnc12` [Brimonidine], the “total RGCs rescued” value ([1]; relative to non-ischemic eyes, saline group 19.6%) is given as 39.6%, the RGC density ([1]; Brimonidine prophylactically applied, 1 mg/kg IP 1 h before ischemia, n=5, non-ischemic eyes 2158 RGCs/mm2) is given as 855.5±30.7 RGCs/mm2 and the neuroprotective activity [2] is given as “neuroprotective”.
